Entries after “also recorded” stand apart in the source; their conditions may differ. Where two headings read alike, the source gives them in different places. Where a SMILES comes first, the peptide text is derived from it. Where no end group is shown, it is not given here.
Experiments:
[1] = tested on: intact rat ventricular cardiomyocytes; assay type: cell-based; settings: not told
Text: Equivalent bioactivity of native human S100A1 protein and the 20-mer C-terminal peptide was shown by the inventors in chemically permeabilized cardiac and skeletal muscle cell preparations enabling intracellular access and regulation of RyR2 and RyR1 function. FIG. 4 depicts a similar intracellular binding pattern for rhodamine-labeled recombinant human S100A1 protein (10415 Mw) (FIG. 4A/B) and the 20-mer FITC-labeled synthetic S100A1 C-terminal peptide (2258 Mw) (FIG. 4C/D).
S100A1ct6/11 refers to the peptide D-K-D-D-P-P-Y-V-V-L-V-A-A-L-T-V-A (SEQ ID NO: 372), wherein the sequence D-K-D-D-P-P (SEQ ID NO: 354) is a hydrophilic motif and the sequence Y-V-V-L-V-A-A-L-T-V-A (SEQ ID NO: 390) are amino acids 75 to 85 of the human S100A1 protein.
FITC-labeled S100A1ct6/11 was incubated with intact rat ventricular cardiomyocytes for 15 minutes before the cells were monitored using confocal laser scanning microscopy. Endogenous S100A1 protein was stained using a conventional immunofluorescence protocol.

[2] = tested on: isolated rat ventricular cardiomyocytes; assay type: cell-based; settings: for effect on calcium transient amplitudes: field-stimulated (1 Hz) isolated rat ventricular cardiomyocytes, FIG. 25; for inotropic effect (calcium transients): basal conditions, intact field-stimulated cardiomyocytes; for inotropic effect (calcium transients) under βAR stimulation: β-AR stimulated, 10^−9 M Isoproterenol
[3] = tested on: permeabilized cardiomyocytes; test: Ca2+-spark frequency in β-escin permeabilized cardiomyocytes; assay type: cell-based, rabbit
Procedure: Adult ventricular rabbit cardiomyocytes were isolated from four different animals as previously described (Loughrey C. M. et al., 2004, J. Physiol. 556:919-934) and permeabilized using β-escin (0.1 mg/ml). The permeabilized cells were incubated for 1 minute with rhodamine-labeled human S100A1 protein (0.1 μM) or FITC-labeled S100A1 C-terminal 20-mer peptide (0.1 μM) fused to a hydrophilic linker (amino acids 75 to 94 of human S100A1 fused to D-K-D-D-P-P (SEQ ID NO: 354)). Cells were monitored using a Bio-Rad 2000 laser scanning confocal microscope (LSCM). A striated staining pattern can be observed that resembles the ryanodine staining pattern (FIG. 4).
Isolated cardiomyocytes were perfused with a mock intracellular solution and permeabilized using β-escin (0.1 mg/ml). Fluo-3 free acid (10 μM) present in the perfusing solution was excited at 488 nm (Kr-laser) and measured at >515 nm applying epifluorescence optics of an inverted microscope with a ×60-1.2 NA water-immersion objective lens. Fluorescence was acquired in line scan mode at 2 ms line^−1; pixel dimension was 0.3 μm (512 pixels scan^−1; zoom=1.4). The scanning laser line orientated parallel with the long axis and placed approximately equidistant between the outer edge of the cell and the nucleus/nuclei, to ensure the nuclear area was not included in the scan line. To enable this trace to be converted to free calcium concentration ([Ca^2+]) a series of calibration solutions were used at the end of each Ca^2+-spark measurement period incorporating 10 mM EGTA. In all experiments concerning Ca^2+-sparks, the [Ca^2+] in the test solution was 145-160 nM. Ca^2+-sparks recorded in Fluo-3-containing solutions were quantified using an automated detection and measurement algorithm. All Ca^2+-spark measurements were made within 7-8 min of cell permeabilization. This time was standardized to minimize loss of soluble proteins. S100A1 protein or S100A1-ct peptide was applied in mock solution using a gravity-fed perfusion system. […]

skeletal muscle fibers = test: Calcium homeostasis in intact skeletal muscle fibers; assay type: cell-based
[4] = tested on: permeabilized EDL murine skeletal muscle fibers; test: Isometric twitch force in permeabilized skeletal muscle fibers; assay type: cell-based, mouse
Procedure: Muscle Fiber Preparation and Experimental Solutions. All of the animals were handled according to the guidelines of the animal care committee of the University of Heidelberg. Male BALB/c mice (3-6-months-old) were sacrificed by an overdose of carbon dioxide, and muscle fiber preparation was carried out as previously described (Fink R. H. and Stephenson D. G., 1987, Pflugers Arch. Eur. J. Physiol. 409:374-380; Makabe M. et al., 1996, Pflugers Arch. Eur. J. Physiol. 432: 717-726). Either EDL (M. ext. dig. longum) or Soleus was isolated, and a small fiber bundle containing two to four single fibers (between 80 and 150 μm in diameter and 3-4-mm-long) was dissected in paraffin oil. […] The free ion concentrations were calculated with the computer program REACT (version 2.0) from G. L. Smith (Glasgow, Scotland). […]
Muscle fibers were skinned for 5 min in skinning solution while the sarcomere length was adjusted to 2.6±0.1 μm using the diffraction pattern of a helium-neon laser. […] Maximum force was measured in the high activating solution at pCa 4.28 and 5 mM caffeine. […] Several control transients were recorded before the fiber was exposed to the S100A1 protein or the S100A1 peptide mixture (N/H/C) or the C-terminal 20-mer alone, and the experiment was repeated as outlined above. […] The correlation coefficients were calculated to determine the accuracy of the fit. […]

[5] = tested on: adult intact cardiomyocytes; test: Calcium homeostasis in adult intact cardiomyocytes; assay type: cell-based

CC(C)C[C@H](NC(=O)[C@H](C)NC(=O)[C@H](C)NC(=O)[C@@H](NC(=O)[C@H](CC(C)C)NC(=O)[C@@H](NC(=O)[C@@H](NC(=O)[C@@H](N)Cc1ccc(O)cc1)C(C)C)C(C)C)C(C)C)C(=O)N[C@H](C(=O)N[C@H](C(=O)N[C@@H](C)C(=O)N[C@@H](CS)C(=O)N[C@@H](CC(N)=O)C(=O)N[C@@H](CC(N)=O)C(=O)N[C@@H](Cc1ccccc1)C(=O)N[C@@H](Cc1ccccc1)C(=O)N[C@@H](Cc1c[nH]c2ccccc12)C(=O)N[C@@H](CCC(=O)O)C(=O)N[C@@H](CC(N)=O)C(=O)N[C@@H](CO)C(=O)O)C(C)C)[C@@H](C)O [20-mer S100A1 C-terminal peptide, YVVLVAALTVACNNFFWENS, reference compound] (H-YVVLVAALTVACNNFFWENS-OH; N-terminus and C-terminus assumed)
ability to permeate the cell membrane of intact cardiomyocytes [1]: cell-impermeable

CC(C)C[C@H](NC(=O)[C@H](C)NC(=O)[C@H](C)NC(=O)[C@@H](NC(=O)[C@H](CC(C)C)NC(=O)[C@@H](NC(=O)[C@@H](NC(=O)[C@H](Cc1ccc(O)cc1)NC(=O)[C@@H]1CCCN1C(=O)[C@@H]1CCCN1C(=O)[C@H](CC(=O)O)NC(=O)[C@H](CC(=O)O)NC(=O)[C@H](CCCCN)NC(=O)[C@@H](N)CC(=O)O)C(C)C)C(C)C)C(C)C)C(=O)N[C@H](C(=O)N[C@H](C(=O)N[C@@H](C)C(=O)O)C(C)C)[C@@H](C)O [S100A1ct6/11, D-K-D-D-P-P-Y-V-V-L-V-A-A-L-T-V-A] (H-DKDDPPYVVLVAALTVA-OH; N-terminus and C-terminus assumed)
ability to permeate the cell membrane of intact cardiomyocytes [1]: cell permeable | EC50 [2]: 87 ± 6 nM

D-K-D-D-P-P (DKDDPP; hydrophilic motif) [linker, reference compound]
effect on calcium transient amplitudes [2]: do not exhibit the inotropic effect

D-K-D-D-P-P-V-V-L-V-A-A-L-T-V-A (DKDDPPVVLVAALTVA; amino acids 76 to 85 of human S100A1 fused to a hydrophilic motif) [N-76-85-C, amino acids 76 to 85 of human S100A1 fused to a hydrophilic linker (D-K-D-D-P-P)]
effect on calcium transient amplitudes ([2]; listed as peptide consisting of amino acids 76 to 85 of human S100A1 fused to a hydrophili): exerts the same inotropic function as the S100A1ct6/11 peptide

DKDDPP-FMAFVAMVTTA (DKDDPPFMAFVAMVTTA; amino acids 75 to 85 of S100B fused to a hydrophilic motif) [amino acids 75-85 of S100B fused to a hydrophilic motif, reference compound]
inotropic effect (calcium transients) [2]: fail to reproduce S100A1ct6/11 inotropic actions | inotropic effect (calcium transients) under βAR stimulation [2]: neither S100A4ct nor S100Bct mimic S100A1ct6/11 inotropic effects

DKDDPP-YCVFLSCIAMM (DKDDPPYCVFLSCIAMM; amino acids 75 to 85 of S100A4 fused to a hydrophilic motif) [amino acids 75-85 of S100A4 fused to a hydrophilic motif, reference compound]
inotropic effect (calcium transients) [2]: fail to reproduce S100A1ct6/11 inotropic actions | inotropic effect (calcium transients) under βAR stimulation [2]: neither S100A4ct nor S100Bct mimic S100A1ct6/11 inotropic effects

N-77-85-C: amino acids 77 to 85 of human S100A1 protein set forth in SEQ ID NO: 1 (VLVAALTVA; listed as Homo sapiens)
effect on calcium transient amplitudes [2]: abolishes the inotropic effect

N-78-85-C: amino acids 78 to 85 of human S100A1 protein set forth in SEQ ID NO: 1 (LVAALTVA; listed as Homo sapiens)
effect on calcium transient amplitudes [2]: abolishes the inotropic effect

N-79-85-C: amino acids 79 to 85 of human S100A1 protein set forth in SEQ ID NO: 1 (VAALTVA; listed as Homo sapiens)
effect on calcium transient amplitudes [2]: abolishes the inotropic effect

S100A1 C-terminal 20-mer peptide fused to a hydrophilic linker: amino acids 75 to 94 of human S100A1 fused to D-K-D-D-P-P (SEQ ID NO: 354) (YVVLVAALTVACNNFFWENS; also: fused to hydrophilic linker D-K-D-D-P-P, end not given here; UniProt P23297 75-94, looked up, fragment) [reference compound]
diastolic calcium spark frequency [3]: decrease calcium spark frequency

B1: S100A1 protein: native human S100A1 protein, 94 amino acids, SEQ ID NO: 1 (protein, listed as Homo sapiens)
chain: MGSELETAMETLINVFHAHSGKEGDKYKLSKKELKELLQTELSGFLDAQKDVDAVDKVMKELDENGDGEVDFQEYVVLVAALTVACNNFFWENS
calcium homeostasis (skeletal muscle fibers): does not alter | isometric twitch force [4]: enhances; also recorded: equivalent biological potency to enhance isometric force | isometric twitch force ([4]; listed as full-length S100A1 protein): has a potency to enhance isometric twitch force | calcium homeostasis [5]: does not alter | RyR2 activity [3]: decreases | diastolic calcium spark frequency [3]: decrease calcium spark frequency; also recorded: decreases
